Laboratory results published in ChEMBL document CHEMBL4428125, “8-Substituted 1,3-dimethyltetrahydropyrazino[2,1-f]purinediones: Water-soluble adenosine receptor antagonists and monoamine oxidase B inhibitors” (Bioorg Med Chem, 2016).
In brackets after ≈: the same amount, converted by molar mass.

Key:
[1] = target: T1, Adenosine receptor A1 (Rattus norvegicus, UniProt P25099); test: Displacement of [3H]CCPA from A1 receptor in rat brain cortex membranes by liquid scintillation counting method; assay type: cell membranes
T1 sequence (P25099 whole entry): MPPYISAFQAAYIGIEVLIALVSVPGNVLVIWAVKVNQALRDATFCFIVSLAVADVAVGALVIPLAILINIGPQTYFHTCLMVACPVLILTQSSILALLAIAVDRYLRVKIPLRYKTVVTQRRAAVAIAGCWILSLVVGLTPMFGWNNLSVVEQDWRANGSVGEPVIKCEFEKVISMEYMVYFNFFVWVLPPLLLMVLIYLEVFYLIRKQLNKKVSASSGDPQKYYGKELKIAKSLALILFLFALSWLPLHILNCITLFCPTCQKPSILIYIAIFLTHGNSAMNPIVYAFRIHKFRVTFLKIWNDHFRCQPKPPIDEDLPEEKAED

[2] = target: T2, Adenosine receptor A1 (Rattus norvegicus) (UniProt P25099); test: Displacement of [3H]CCPA from A1 receptor in rat brain cortex membranes at 1.5 uM by liquid scintillation counting method; assay type: cell membranes
T2 sequence (whole entry): T1 sequence (P25099 whole entry)

[3] = target: Adenosine receptor A2a (Rattus norvegicus, UniProt P30543); test: Displacement of [3H]MSX from A2A receptor in rat brain striatum membranes measured after 30 mins by liquid scintillation counting method; assay type: cell membranes
Adenosine receptor A2a, sequence (P30543 whole entry): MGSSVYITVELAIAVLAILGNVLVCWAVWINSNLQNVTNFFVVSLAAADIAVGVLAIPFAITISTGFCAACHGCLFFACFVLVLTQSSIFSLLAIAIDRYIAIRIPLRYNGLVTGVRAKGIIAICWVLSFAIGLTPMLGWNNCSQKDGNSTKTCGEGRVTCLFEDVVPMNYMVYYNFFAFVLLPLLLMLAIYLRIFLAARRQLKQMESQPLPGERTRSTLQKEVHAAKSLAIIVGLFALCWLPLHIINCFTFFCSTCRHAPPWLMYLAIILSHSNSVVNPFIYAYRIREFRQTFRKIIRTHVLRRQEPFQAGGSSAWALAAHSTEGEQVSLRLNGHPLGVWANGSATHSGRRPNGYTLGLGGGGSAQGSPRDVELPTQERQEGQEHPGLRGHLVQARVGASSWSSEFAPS

[4] = target: T3, Amine oxidase [flavin-containing] B (Homo sapiens, UniProt P27338); test: Inhibition of recombinant human MAO-B expressed in baculovirus infected BTI insect cells preincubated for 30 mins followed by addition of p-tyramine as substrate measured over 45 mins by Amplex Red MAO assay
T3 sequence (P27338 whole entry): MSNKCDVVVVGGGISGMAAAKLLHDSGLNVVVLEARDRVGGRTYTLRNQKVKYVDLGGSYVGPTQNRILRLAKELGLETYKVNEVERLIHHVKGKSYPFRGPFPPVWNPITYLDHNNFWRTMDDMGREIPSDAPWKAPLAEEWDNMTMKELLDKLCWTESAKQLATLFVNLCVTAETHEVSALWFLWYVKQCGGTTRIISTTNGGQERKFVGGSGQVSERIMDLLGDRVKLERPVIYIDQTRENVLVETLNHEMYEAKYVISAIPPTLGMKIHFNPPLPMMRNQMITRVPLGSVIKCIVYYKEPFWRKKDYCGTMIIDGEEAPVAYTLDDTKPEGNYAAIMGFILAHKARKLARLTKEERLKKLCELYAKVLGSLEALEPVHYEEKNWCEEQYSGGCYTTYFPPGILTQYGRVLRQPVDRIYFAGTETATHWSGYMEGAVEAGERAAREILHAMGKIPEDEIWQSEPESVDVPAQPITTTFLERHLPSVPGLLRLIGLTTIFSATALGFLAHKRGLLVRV

[5] = target: T4, Adenosine receptor A2b (Homo sapiens, UniProt P29275); test: Displacement of [3H]PSB-603 from human A2B receptor expressed in CHO cell membrane; assay type: cell membranes
T4 sequence (P29275 whole entry): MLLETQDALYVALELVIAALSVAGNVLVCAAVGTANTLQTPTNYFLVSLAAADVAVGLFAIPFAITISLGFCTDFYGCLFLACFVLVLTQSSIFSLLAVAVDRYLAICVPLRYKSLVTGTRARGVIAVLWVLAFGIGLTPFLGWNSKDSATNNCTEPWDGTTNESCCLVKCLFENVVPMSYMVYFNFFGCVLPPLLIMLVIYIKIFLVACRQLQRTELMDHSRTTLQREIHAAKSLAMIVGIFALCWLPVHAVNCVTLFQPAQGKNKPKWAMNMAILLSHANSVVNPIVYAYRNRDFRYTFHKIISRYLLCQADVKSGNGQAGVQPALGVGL

[6] = target: T5, Adenosine receptor A3 (Homo sapiens, UniProt P0DMS8); test: Displacement of [3H]PSB-11 from human A3 receptor expressed in CHO cell membrane by liquid scintillation counting method relative to control; assay type: cell membranes
T5 sequence (P0DMS8 whole entry): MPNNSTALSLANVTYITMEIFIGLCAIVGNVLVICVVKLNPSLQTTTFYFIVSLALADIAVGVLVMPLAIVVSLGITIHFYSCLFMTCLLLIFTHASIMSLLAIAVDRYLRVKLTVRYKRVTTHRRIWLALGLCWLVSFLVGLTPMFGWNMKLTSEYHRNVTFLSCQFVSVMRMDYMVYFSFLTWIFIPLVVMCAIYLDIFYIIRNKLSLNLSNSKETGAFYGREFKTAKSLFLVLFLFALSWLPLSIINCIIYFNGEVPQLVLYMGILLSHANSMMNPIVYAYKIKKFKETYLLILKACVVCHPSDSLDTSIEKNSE

[7] = target: T6, Adenosine receptor A3 (Homo sapiens) (UniProt P0DMS8); test: Displacement of [3H]PSB-11 from human A3 receptor expressed in CHO cell membrane at 10 uM by liquid scintillation counting method relative to control relative to control; assay type: cell membranes
T6 sequence (whole entry): T5 sequence (P0DMS8 whole entry)

[8] = Thermodynamic solubility of the compound at pH 1; assay type: physicochemical; conditions: buffer, read-out: Therm_solubility
[9] = Thermodynamic solubility of the compound at pH 4; assay type: physicochemical; conditions: buffer, read-out: Therm_solubility
[10] = Thermodynamic solubility of the compound at pH 7.4; assay type: physicochemical; conditions: buffer, read-out: Therm_solubility
[11] = target: T7, Adenosine receptor A2b (Homo sapiens) (UniProt P29275); test: Displacement of [3H]PSB-603 from human A2B receptor expressed in CHO cell membrane at 0.3 uM relative to control; assay type: cell membranes
T7 sequence (whole entry): T4 sequence (P29275 whole entry)

[12] = target: T8, Amine oxidase [flavin-containing] A (Homo sapiens, UniProt P21397); test: Inhibition of recombinant human MAO-A expressed in baculovirus infected BTI insect cells preincubated for 30 mins followed by addition of p-tyramine as substrate measured over 45 mins by Amplex Red MAO assay
T8 sequence (P21397 whole entry): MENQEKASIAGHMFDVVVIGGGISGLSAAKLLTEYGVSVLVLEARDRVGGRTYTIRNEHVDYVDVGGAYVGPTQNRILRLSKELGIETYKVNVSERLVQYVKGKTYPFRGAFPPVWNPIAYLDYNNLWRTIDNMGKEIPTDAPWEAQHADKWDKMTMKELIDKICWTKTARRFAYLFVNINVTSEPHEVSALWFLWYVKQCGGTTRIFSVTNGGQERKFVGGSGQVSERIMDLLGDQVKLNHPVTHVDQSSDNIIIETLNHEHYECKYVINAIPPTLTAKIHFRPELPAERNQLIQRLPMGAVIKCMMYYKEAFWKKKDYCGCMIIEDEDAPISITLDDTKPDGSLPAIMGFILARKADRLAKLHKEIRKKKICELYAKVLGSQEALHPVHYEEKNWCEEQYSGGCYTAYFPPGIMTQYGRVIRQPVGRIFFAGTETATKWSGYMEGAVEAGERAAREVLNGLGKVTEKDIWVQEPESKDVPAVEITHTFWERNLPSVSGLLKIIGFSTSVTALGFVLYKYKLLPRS

[13] = target: T8, Amine oxidase [flavin-containing] A; test: Inhibition of recombinant human MAO-A expressed in baculovirus infected BTI insect cells at 10 uM preincubated for 30 mins followed by addition of p-tyramine as substrate measured over 45 mins by Amplex Red MAO assay relative to control; conditions: 0.75 h
[14] = target: T3, Amine oxidase [flavin-containing] B; test: Inhibition of recombinant human MAO-B expressed in baculovirus infected BTI insect cells at 10 uM preincubated for 30 mins followed by addition of p-tyramine as substrate measured over 45 mins by Amplex Red MAO assay relative to control; conditions: 0.75 h
[15] = target: T9, Adenosine receptor A1 (Homo sapiens, UniProt P30542); test: Displacement of [3H]CCPA from human A1 receptor expressed in CHO cell membrane by liquid scintillation counting method; assay type: cell membranes
T9 sequence (P30542 whole entry): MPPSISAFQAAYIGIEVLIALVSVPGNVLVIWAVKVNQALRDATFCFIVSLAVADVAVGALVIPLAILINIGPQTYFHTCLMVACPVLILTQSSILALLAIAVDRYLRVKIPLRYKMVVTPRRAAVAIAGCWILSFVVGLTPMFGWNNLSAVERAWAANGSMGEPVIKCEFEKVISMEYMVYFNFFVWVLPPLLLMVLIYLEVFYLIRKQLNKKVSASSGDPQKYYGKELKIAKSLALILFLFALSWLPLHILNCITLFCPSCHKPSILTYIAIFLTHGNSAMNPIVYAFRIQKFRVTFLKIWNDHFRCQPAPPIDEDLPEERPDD

[16] = target: T7, Adenosine receptor A2b (Homo sapiens); test: Displacement of [3H]PSB-603 from human A2B receptor expressed in CHO cell membrane at 1 uM relative to control; assay type: cell membranes
[17] = target: Adenosine receptor A2a (Rattus norvegicus) (UniProt P30543); test: Displacement of [3H]MSX from A2A receptor in rat brain striatum membranes at 1 uM measured after 30 mins by liquid scintillation counting method relative to control; assay type: cell membranes
Adenosine receptor A2a (Rattus norvegicus), sequence (P30543 whole entry): as the sequence (P30543 whole entry) above

Structure (SMILES): Cn1c(=O)c2c(nc3n2CCN(C2CCc4ccccc42)C3)n(C)c1=O (racemic)
- Ki [1]: > 1500 nM
- Activity [2]: 32%
- Ki [3]: 4210 nM
- IC50 [4]: 2130 nM
- Ki [5]: > 300 nM
- Ki [6]: > 10000 nM
- Activity [7]: 45%
- solubility thermodynamic [8]: 1000 µg/mL (≈ 2850 µM)
- solubility thermodynamic [9]: 1 µg/mL (≈ 2.85 µM)
- solubility thermodynamic [10]: < 0.5 µg/mL
- Activity [11]: 10%

Structure (SMILES): Cn1c(=O)c2c(nc3n2CCN(CCc2cccc(F)c2)C3)n(C)c1=O
- Ki [1]: > 1500 nM
- Activity [2]: 6%
- Ki [3]: 1500 nM
- IC50 [12]: > 10000 nM
- inhibition at 10 µM [13]: 12%
- IC50 [4]: > 10000 nM
- inhibition at 10 µM [14]: 35%
- Ki [5]: > 300 nM
- Ki [6]: > 10000 nM
- Activity [7]: 16%
- Activity [11]: 8%

Structure (SMILES): Cn1c(=O)c2c(nc3n2CCN([C@H]2CCc4ccccc42)C3)n(C)c1=O
- Ki [1]: > 1500 nM
- Activity [2]: 29%
- Ki [3]: 2480 nM
- IC50 [4]: > 10000 nM
- inhibition at 10 µM [14]: 22%
- Ki [5]: > 300 nM
- Ki [6]: > 10000 nM
- Activity [7]: 33%
- Activity [11]: 11%

Structure (SMILES): Cn1c(=O)c2c(nc3n2CCN(CCCc2ccccc2)C3)n(C)c1=O
- Ki [1]: > 1500 nM
- Activity [2]: 12%
- Ki [3]: 1840 nM
- IC50 [12]: > 10000 nM
- inhibition at 10 µM [13]: 9%
- IC50 [4]: > 10000 nM
- inhibition at 10 µM [14]: 14%
- Ki [5]: > 300 nM
- Ki [6]: > 10000 nM
- Activity [7]: 20%
- solubility thermodynamic [10]: 80 µg/mL (≈ 226 µM)
- Activity [11]: 5%

Structure (SMILES): Cn1c(=O)c2c(nc3n2CCN(CCc2ccc(Cl)cc2C(F)(F)F)C3)n(C)c1=O
- Ki [15]: 553 nM
- Ki [1]: 138 nM
- Ki [3]: 2910 nM
- IC50 [4]: 425 nM
- Ki [5]: > 1000 nM
- Activity [16]: 26%
- Ki [6]: > 10000 nM
- Activity [7]: 25%

Structure (SMILES): Cn1c(=O)c2c(nc3n2CCN(CCc2cccs2)C3)n(C)c1=O
- Ki [1]: > 1500 nM
- Activity [2]: 15%
- Ki [3]: 1590 nM
- IC50 [12]: > 10000 nM
- inhibition at 10 µM [13]: 5%
- IC50 [4]: > 10000 nM
- inhibition at 10 µM [14]: 21%
- Ki [5]: > 300 nM
- Ki [6]: > 10000 nM
- Activity [7]: 24%
- Activity [11]: 17%

Structure (SMILES): Cn1c(=O)c2c(nc3n2CCN(CCn2cccc2)C3)n(C)c1=O
- Ki [1]: > 1500 nM
- Activity [2]: 7%
- Ki [3]: > 1000 nM
- Activity [17]: 8%
- IC50 [12]: > 10000 nM
- inhibition at 10 µM [13]: 14%
- IC50 [4]: > 10000 nM
- inhibition at 10 µM [14]: 19%
- Ki [5]: > 1000 nM
- Activity [16]: 8%
- Ki [6]: > 10000 nM
- Activity [7]: 37%
- solubility thermodynamic [8]: > 1500 µg/mL
- solubility thermodynamic [9]: 1500 µg/mL (≈ 4570 µM)
- solubility thermodynamic [10]: 1200 µg/mL (≈ 3650 µM)

Structure (SMILES): Cn1c(=O)c2c(nc3n2CCN(CCc2cccc(Br)c2)C3)n(C)c1=O
- Ki [1]: > 1500 nM
- Activity [2]: 26%
- Ki [3]: 2120 nM
- IC50 [4]: 3650 nM
- Ki [5]: > 300 nM
- Ki [6]: > 10000 nM
- Activity [7]: 42%
- solubility thermodynamic [8]: 700 µg/mL (≈ 1670 µM)
- solubility thermodynamic [9]: < 0.5 µg/mL
- solubility thermodynamic [10]: < 0.5 µg/mL
- Activity [11]: 29%

Structure (SMILES): Cn1c(=O)c2c(nc3n2CCN(CCc2ccccc2F)C3)n(C)c1=O
- Ki [1]: > 1500 nM
- Activity [2]: 24%
- Ki [3]: 5630 nM
- inhibition at 10 µM [14]: 65%
- Ki [5]: > 300 nM
- Ki [6]: > 10000 nM
- Activity [7]: 40%
- Activity [11]: 2%

Structure (SMILES): Cn1c(=O)c2c(nc3n2CCN(CCc2ccc(Cl)cc2Cl)C3)n(C)c1=O
- Ki [15]: 3520 nM
- Ki [1]: 416 nM
- Ki [3]: 2250 nM
- IC50 [12]: > 10000 nM
- inhibition at 10 µM [13]: 15%
- IC50 [4]: 2450 nM
- Ki [5]: > 1000 nM
- Activity [16]: 24%
- Ki [6]: 30900 nM
